Results published in publication PMC12564498, “Benzo[d]imidazole–Naphthalen-Arylmethanone Regioisomers as CB1 Ligands: Evaluation of Agonism via an Indirect Cytotoxicity-Based Approach” (International Journal of Molecular Sciences, 2025).
Several values for one entry are separate records, joined by “and”; a condition that tells them apart may be missing. Identical values can stand only once. Like-named read-outs stand apart in the source and are kept apart here.

What was measured:
[1] = target: T1, human recombinant cannabinoid CB2 receptor (Homo sapiens, UniProt P34972); assay: CB2 radioligand displacement binding assay ([3H]CP-55940); settings: for Ki: Cheng–Prusoff from IC50, [3H]CP-55940 0.5 nM; for Ki / IC50: mean ± SEM n = 3; for IC50: [3H]CP-55940 0.5 nM, hCB2 HEK293-EBNA membranes; for inhibition at 10 µM: displacement of [3H]CP-55940 at 10 μM compound, read-out: CB2 Max Tested µM (% Displacement)
T1 construct: purchased Perkin Elmer Inc., Singapore Pte; Ltd. RBXCB2M400UA; host or cells: HEK293-EBNA cell membranes (overexpressing)
T1 sequence (P34972 whole entry): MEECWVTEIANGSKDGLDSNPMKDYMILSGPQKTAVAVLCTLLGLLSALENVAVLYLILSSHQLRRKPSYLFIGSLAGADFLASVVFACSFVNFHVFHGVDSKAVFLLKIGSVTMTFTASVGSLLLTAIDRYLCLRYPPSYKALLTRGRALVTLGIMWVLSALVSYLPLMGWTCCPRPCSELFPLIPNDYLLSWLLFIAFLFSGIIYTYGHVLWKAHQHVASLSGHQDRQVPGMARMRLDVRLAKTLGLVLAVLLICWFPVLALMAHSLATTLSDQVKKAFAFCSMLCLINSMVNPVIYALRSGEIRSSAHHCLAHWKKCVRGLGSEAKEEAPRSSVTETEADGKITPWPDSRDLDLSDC

[2] = system: HL-60 cells; assay: cells; settings: for cytotoxicity at 0.1 µM: read-out: % Toxicity HL-60; for cytotoxicity in HL-60: Figure 4, MTT
Protocol: (§1) HEK293, U87MG, and HL-60 cell lines were seeded in a flat-bottom 96-well plate at a density of 10,000 cells per well. […] All compounds were incubated at 0.1 μM in 200 μL of culture medium supplemented with 10% FBS, in a flat-bottom 96-well plate at a density of 10,000 cells per well, at 37 °C for 72 h. Next, 20 μL of a 5 mg/mL MTT solution was added, and the cells were incubated at 37 °C for 4 h. Then, they were solubilized with 10% sodium dodecyl sulfate (SDS) in 0.1 mM HCl and incubated overnight at 37 °C. Formazan absorbance of each well was measured using the EPOCH microplate reader (Biotek, Winooski, VT, USA) at a wavelength of 570 nm. […]
(§2) promyelocytic leukemia cells (HL-60) were maintained at 5% CO2 and 37 °C in DMEM, EMEM and RPMI medium, respectively containing 10% Fetal Bovine Serum and 100 U/mL penicillin and 100 […]
(§3) Cell viability: ([MTT - (3-(4,5-dimethylthiazol-2-yl)-2,5-diphenyltetrazolium bromide) - formazan] HEK293, U87MG, and HL-60 cells were first quantified to determine the exact number to be used in […]
(§4) with the Beer-Lambert(1).
(§5) HEK293, U87MG and HL-60 cell lines were seed in a flat-bottom 96-wells plate at a density of 10,000 […]
(§6) concentrations (0.001 μM to 10 μM) in 200 μL of respective culture medium supplemented with 10% fetal bovine serum (FBS), at 37 °C for 72 hours. Subsequently, 20 μL of 5 mg/mL MTT solution was added to each well, and cells were incubated at 37 °C for 4 h. The resulting formazan crystals were then solubilized with 10% sodium dodecyl sulfate (SDS) in 0.1 mM HCl, followed by overnight incubation at 37 °C. Untreated cells were used as the control, 0.1% of dimethyl sulfoxide (DMSO) as the vehicle control, and 0.2 % of Triton X-100 as a positive control for cell death. IC 50 toxicity values […]
(§7) same conditions described in the previous paragraph. […]
(§8) determined IC50. The stimulation with both CB ligands was performed simultaneously.
(§9) All compounds were incubated at 0.1 μM in 200 μL of culture medium supplemented with 10% FBS, in a flat-bottom 96-well plate at a density of 10,000 cells per well, at 37°C for 72 hours. Next, 20 μL of a 5 mg/mL MTT solution was added, and the cells were incubated at 37°C for 4 hours. Then, they were solubilized with 10% sodium dodecyl sulfate (SDS) in 0.1 mM HCl and incubated overnight at 37°C. Formazan absorbance of each well was measured using the EPOCH microplate reader (Biotek, USA) at a wavelength of 570 nm.
(§10) [1]Mosorov, V., The Lambert-Beer law in time domain form and its application.

[3] = system: HEK293 cells; assay: cells; settings: for cytotoxicity at 0.1 µM: read-out: % Toxicity HEK293T, 0.1 μM, 72 h, MTT, n = 3; for cytotoxicity in HEK293: Figure 4, MTT; for IC50: read-out: IC50 toxicity HEK293T
Protocol: as §1, §2, §3, §4, §5, §6, §7, §8, §9, §10

[4] = system: U87MG cells; assay: cells; settings: 72 h; for cytotoxicity at 0.1 µM: read-out: % Toxicity U87MG, 0.1 μM, 72 h, MTT, n = 3; for cytotoxicity in U87MG: Figure 4, MTT, 0.001 μM to 10 μM
Protocol: as §1, §2, §3, §4, §5, §6, §7, §8, §9, §10

[5] = target: T2, human cannabinoid CB1 receptor (Homo sapiens, UniProt P21554); assay: biochemical; assay type: binding; settings: for Ki: Cheng–Prusoff from IC50, [3H]CP-55940 0.5 nM, read-out: CB1 Ki; for Ki / IC50: mean ± SEM n = 3; for IC50: [3H]CP-55940 0.5 nM, hCB1 HEK293-EBNA membranes, read-out: CB1 IC50; for inhibition at 10 µM: displacement of [3H]CP-55940 at 10 μM compound, read-out: CB1 Max Tested µM (% Displacement)
T2 construct: purchased Perkin Elmer Inc., Singapore Pte; Ltd. RBHCB1M400UA; host or cells: HEK293-EBNA cell membranes (overexpressing)
T2 sequence (P21554 whole entry): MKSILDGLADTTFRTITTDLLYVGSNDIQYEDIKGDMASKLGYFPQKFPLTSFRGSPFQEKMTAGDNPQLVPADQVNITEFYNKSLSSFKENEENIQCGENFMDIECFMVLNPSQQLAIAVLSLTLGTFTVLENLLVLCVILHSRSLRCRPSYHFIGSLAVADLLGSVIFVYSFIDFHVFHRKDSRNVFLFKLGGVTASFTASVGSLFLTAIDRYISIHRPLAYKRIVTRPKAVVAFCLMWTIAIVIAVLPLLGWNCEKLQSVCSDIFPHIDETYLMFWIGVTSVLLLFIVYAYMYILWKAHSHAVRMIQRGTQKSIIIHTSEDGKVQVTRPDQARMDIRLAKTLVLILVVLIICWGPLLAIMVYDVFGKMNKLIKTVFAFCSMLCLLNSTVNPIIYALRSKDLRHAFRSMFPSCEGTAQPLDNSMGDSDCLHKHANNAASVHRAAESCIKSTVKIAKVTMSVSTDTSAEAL

[6] = read-out: IC50 toxicity U87MG, MTT

For COc1cccc(-c2nc3ccc(Cl)cc3n2C(=O)c2cccc3ccccc23)c1 [4b′], the Ki [1] was ~4.46 µM and 4.46 µM, the IC50 [1] was 6.76 ± 3.09 µM and the inhibition at 10 µM [1] was 58%. For the same compound, the “% Toxicity HL-60” value ([2]; 0.1 μM, 72 h, MTT, n = 3) was 52 ± 13%, the cytotoxicity at 0.1 µM ([2]; Homo sapiens, HL-60, 72 h) was 52% and the cytotoxicity at 0.1 µM ([3]; Homo sapiens, HEK293, 72 h) was 50 ± 11%. The cytotoxicity at 0.1 µM ([4]; Homo sapiens, U-87 MG) was 39 ± 20%, the Ki [5] was over 10 µM and the IC50 [5] was over 10 µM. The inhibition at 10 µM [5] was 43%.
For COc1ccc(C(=O)c2c(C)n(CCN3CCOCC3)c3cc(I)ccc23)cc1 [AM630, reference compound], the “cytotoxicity in HL-60” value ([2]; 0.001 μM to 10 μM, 72 h) was “non-toxic”, the IC50 ([2]; read-out: IC50 toxicity HL-60, MTT, 72 h, 0.001 μM to 10 μM) was over 10 µM and the “cytotoxicity in HEK293” value ([3]; 0.001 μM to 10 μM, 72 h) was “non-toxic”. The IC50 ([3]; MTT, 72 h, 0.001 μM to 10 μM) was over 10 µM, the “cytotoxicity in U87MG” value [4] was “non-toxic” and the IC50 [4, 6] was over 10 µM.
In the case of COc1cccc(-c2nc3cc(F)ccc3n2C(=O)c2cccc3ccccc23)c1 [Compound 5b, (5-fluoro-2-(3-methoxyphenyl)-1H-benzo[d]imidazol-1-yl)(naphthalen-1-yl)methanone], the Ki [1] is reported as over 10 µM, the IC50 [1] is reported as over 10 µM and the inhibition at 10 µM [1] is reported as 45%. The cytotoxicity at 0.1 µM ([2]; Homo sapiens, HL-60, 72 h) was 45 ± 17%, the cytotoxicity at 0.1 µM ([3]; Homo sapiens, HEK293, 72 h) was 75 ± 17% and the cytotoxicity at 0.1 µM ([4]; Homo sapiens, U-87 MG) was 25 ± 14%. For the same compound, the Ki [5] was ~1.53 µM and 1.53 µM, the IC50 [5] was 6.23 ± 3.8 µM and the inhibition at 10 µM [5] was over 55%.
Cc1ccc(-c2nc3cc(F)ccc3n2C(=O)c2cccc3ccccc23)o1 [Compound 5e, (5-fluoro-2-(5-methylfuran-2-yl)-1H-benzo[d]imidazol-1-yl)(naphthalen-1-yl)methanone] gave a Ki [1] of over 10 µM, an IC50 [1] of over 10 µM and an inhibition at 10 µM [1] of 38.5%. It also gave a cytotoxicity at 0.1 µM ([2]; Homo sapiens, HL-60, 72 h) of 50 ± 19%, a cytotoxicity at 0.1 µM ([3]; Homo sapiens, HEK293, 72 h) of 55 ± 23% and a cytotoxicity at 0.1 µM ([4]; Homo sapiens, U-87 MG) of 39 ± 18%. For the same compound, the Ki [5] was 1.82 ± 1.64 µM, the IC50 [5] was 7.4 ± 3.28 µM and the inhibition at 10 µM [5] was over 55%.
With Cc1c(C(=O)c2cccc3ccccc23)c2cccc3c2n1C(CN1CCOCC1)CO3 (centres unmarked) [WIN-55212-2, reference compound] the “displacement of specific radioligand binding (nonspecific binding definition), CB2” value ([1]; 10 μM unlabeled WIN-55212-2, cannabinoid receptors) was “at least 84%”, the “cytotoxicity in HL-60” value ([2]; 0.001 μM to 10 μM, 72 h) was “exhibits cytotoxicity” and the IC50 ([2]; Homo sapiens, HL-60, 72 h, read-out: IC50 toxicity HL-60) was 1.39 µM. For the same compound, the IC50 ([2]; Homo sapiens, HL-60, read-out: IC50 HL-60 cells as printed in the figure picture) was 1.38 µM, the “cytotoxicity in HEK293” value ([3]; 0.001 μM to 10 μM, 72 h) was “harmlessness” and the IC50 ([3]; Homo sapiens, HEK293, 72 h) was over 10 µM. For the same compound, the “cytotoxicity in U87MG” value [4] was “exhibits cytotoxicity”, the cytotoxicity at 0.1 µM ([4]; Homo sapiens, U-87 MG) was about 30% and the IC50 ([4]; Homo sapiens, U-87 MG, read-out: IC50 toxicity U87MG, MTT, 72 h) was 0.2 µM. For the same compound, the IC50 [4, 6] was 0.25 µM.
